Each block holds one molecule with its values, some of them ahead of it. Activity calls are given as the source filed them. No cut-off for these calls is given here.
Experiments:
Histone deacetylase 2 [1] = molecular target: T1, Histone deacetylase 2 (Homo sapiens, UniProt Q92769); experiment: Inhibition of full length recombinant C-terminal FLAG-tagged human HDAC2 expressed in baculovirus-infected Sf9 cells measured for 2 hrs by fluorescence-based assay
Histone deacetylase 2 [2] = molecular target: T1, Histone deacetylase 2; experiment: Inhibition of full length recombinant C-terminal FLAG-tagged human HDAC2 expressed in baculovirus-infected Sf9 cells at 1 mM measured for 2 hrs by fluorescence-based assay relative to control
[3] = AUC (0 to infinity) in C57BL/6 mouse brain at 100 mg/kg, po measured upto 6 hrs by LC-ESI-MS/MS analysis; type: ADME, organism-based; parameters: dose 100 mg/kg, time < 6 hrs, route po; conditions: in vivo
[4] = AUC (0 to infinity) in C57BL/6 mouse plasma at 30 mg/kg, po measured upto 24 hrs by LC-ESI-MS/MS analysis; type: ADME, organism-based; parameters: time < 24 hrs, dose 30 mg/kg, route po
[5] = Cmax in C57BL/6 mouse plasma at 100 mg/kg, po measured upto 24 hrs by LC-ESI-MS/MS analysis; type: ADME, organism-based; parameters: time < 24 hrs, dose 100 mg/kg, route po
[6] = Cmax in C57BL/6 mouse brain at 30 mg/kg, po measured upto 24 hrs by LC-ESI-MS/MS analysis; type: ADME, organism-based; parameters: dose 30 mg/kg, time < 24 hrs, route po
[7] = Half life in C57BL/6 mouse plasma at 30 mg/kg, po measured upto 24 hrs by LC-ESI-MS/MS analysis; type: ADME, organism-based
[8] = Cmax in C57BL/6 mouse plasma at 30 mg/kg, po measured upto 24 hrs by LC-ESI-MS/MS analysis; type: ADME, organism-based; parameters: time < 24 hrs, dose 30 mg/kg, route po
[9] = Half life in C57BL/6 mouse brain at 100 mg/kg, po measured upto 6 hrs by LC-ESI-MS/MS analysis; type: ADME, organism-based
Mus musculus = experiment: In vivo inhibition of HDAC2 in C57BL/6 mouse assessed as increase in histone H4K12 acetylation in brain at 100 mg/kg, po measured after 4 hrs by immunochemical detection method; type: functional, organism-based
SK-N-SH [10] = experiment: Inhibition of […] in human SK-N-SH cells assessed as increase in histone H4K12 acetylation level at 3 to 12 uM measured after 48 hrs by immunochemical detection based analysis; type: cell-based; conditions: dose 3-12 µM
[11] = Lipophilicity, log D of the compound at pH 7.4; type: physicochemical; conditions: buffer
SK-N-SH [12] = experiment: Inhibition of […] in human SK-N-SH cells assessed as increase in histone H3K9 acetylation level at 3 to 12 uM measured after 48 hrs by immunochemical detection based analysis; type: cell-based; conditions: dose 3-12 µM
[13] = AUC (0 to infinity) in C57BL/6 mouse brain at 30 mg/kg, po measured upto 24 hrs by LC-ESI-MS/MS analysis; type: ADME, organism-based; parameters: dose 30 mg/kg, time < 24 hrs, route po; conditions: in vivo
[14] = Half life in C57BL/6 mouse brain at 30 mg/kg, po measured upto 24 hrs by LC-ESI-MS/MS analysis; type: ADME, organism-based
[15] = Cmax in C57BL/6 mouse brain at 100 mg/kg, po measured upto 6 hrs by LC-ESI-MS/MS analysis; type: ADME, organism-based; parameters: dose 100 mg/kg, time < 6 hrs, route po
[16] = Unbound brain-to-plasma concentration ratio in C57BL/6 mouse by LC-MS/MS analysis; type: ADME; conditions: read-out: K(p,uu,brain)
[17] = Half life in C57BL/6 mouse plasma at 100 mg/kg, po measured upto 24 hrs by LC-ESI-MS/MS analysis; type: ADME, organism-based
[18] = AUC (0 to infinity) in C57BL/6 mouse plasma at 100 mg/kg, po measured upto 24 hrs by LC-ESI-MS/MS analysis; type: ADME, organism-based; parameters: time < 24 hrs, dose 100 mg/kg, route po
Histone deacetylase 2 [19] = molecular target: T1, Histone deacetylase 2; experiment: Inhibition of full length recombinant C-terminal FLAG-tagged human HDAC2 expressed in baculovirus-infected Sf9 cells at 2 mM measured for 2 hrs by fluorescence-based assay relative to control

T1 sequence (Q92769 whole entry): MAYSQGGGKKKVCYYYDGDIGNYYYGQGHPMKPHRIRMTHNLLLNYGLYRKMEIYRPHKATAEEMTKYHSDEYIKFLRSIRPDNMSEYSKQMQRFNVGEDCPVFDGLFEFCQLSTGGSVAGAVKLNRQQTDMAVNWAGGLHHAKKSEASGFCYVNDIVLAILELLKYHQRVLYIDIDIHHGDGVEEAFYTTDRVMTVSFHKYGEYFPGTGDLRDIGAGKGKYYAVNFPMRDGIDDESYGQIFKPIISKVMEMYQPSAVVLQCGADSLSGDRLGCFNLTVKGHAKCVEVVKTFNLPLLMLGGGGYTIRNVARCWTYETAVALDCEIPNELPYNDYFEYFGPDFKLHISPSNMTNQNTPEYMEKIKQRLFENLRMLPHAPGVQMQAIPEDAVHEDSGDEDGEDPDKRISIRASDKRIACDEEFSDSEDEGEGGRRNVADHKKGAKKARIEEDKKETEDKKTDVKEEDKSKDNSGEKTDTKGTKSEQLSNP

IC50 (Histone deacetylase 2 [1]): 6.4 µM
SMILES: O=C([C@H]1C[C@@H](c2ccccc2)CN1)N1Cc2ccccc2C1

IC50 (Histone deacetylase 2 [1]): 2.8 µM
SMILES: O=C([C@H]1C[C@@H](c2cccc(Cl)c2)CN1)N1Cc2ccccc2C1

inhibition (Histone deacetylase 2 [2]): 4%
SMILES: Cc1cc(O)cc(=O)o1

IC50 (Histone deacetylase 2 [1]): 4 µM
SMILES: O=C([C@H]1C[C@@H](c2ccc(Cl)cc2)CN1)N1Cc2ccccc2C1

AUC [3]: 13.1 µg·h/g
AUC(0-inf) [4]: 4200 ng·h/mL
Cmax [5]: 4000 ng/mL
Cmax [6]: 2300 ng/g
half-life [7]: 1.1 h
Cmax [8]: 2400 ng/mL
half-life [9]: 2.7 h
logD [11]: 3.9
IC50 (Histone deacetylase 2 [1]): 0.5 µM
AUC [13]: 4 µg·h/g
half-life [14]: 0.9 h
Cmax [15]: 3400 ng/g
Kp uu [16]: 0.36
half-life [17]: 3.5 h
AUC(0-inf) [18]: 18500 ng·h/mL
SMILES: O=C([C@H]1C[C@@H](c2cccc(Cl)c2)CN1)N1CCN(c2nccc3ccsc23)CC1
inhibition (Mus musculus): Active
inhibition (SK-N-SH [10]): Active
inhibition (SK-N-SH [12]): Active

inhibition (Histone deacetylase 2 [2]): 9%
SMILES: O=C1CCC(c2ccc(Cl)cc2)N1 (centres undefined)

IC50 (Histone deacetylase 2 [1]): 0.85 µM
SMILES: N#Cc1cccnc1N1CCN(C(=O)[C@H]2C[C@@H](c3cccc(Cl)c3)CN2)CC1

IC50 (Histone deacetylase 2 [1]): 1.7 µM
SMILES: O=C([C@H]1C[C@@H](c2ccccc2)CN1)N1CCN(c2nccc3ccsc23)CC1

inhibition (Histone deacetylase 2 [19]): 64%
SMILES: CN(C)C(=O)[C@H](N)CCc1ccccc1

The next lines start with the molecule.

SMILES: N#Cc1cccnc1N1CCN(C(=O)[C@H]2C[C@@H](c3ccccc3)CN2)CC1
IC50 (Histone deacetylase 2 [1]): 1.8 µM

SMILES: CN(C)C(=O)C(N)Cc1ccc(F)cc1 (centres undefined)
inhibition (Histone deacetylase 2 [2]): 58%
IC50 (Histone deacetylase 2 [1]): 1000 µM

SMILES: N[C@H](CCc1ccccc1)C(=O)N1CCCC1
IC50 (Histone deacetylase 2 [1]): 110 µM

SMILES: O=C1CCC(c2ccc([C@H]3CN[C@@H](C(=O)N4Cc5ccccc5C4)C3)cc2)N1 (stereo in doubt; 10)
IC50 (Histone deacetylase 2 [1]): 26 µM

SMILES: O=C(O)Cc1ccccc1
inhibition (Histone deacetylase 2 [2]): 40%

SMILES: O=C1CCC(c2ccc([C@H]3CN[C@@H](C(=O)N4Cc5ccccc5C4)C3)cc2)N1 (stereo in doubt; 11)
IC50 (Histone deacetylase 2 [1]): 18 µM

SMILES: O=C([C@H]1C[C@@H](c2ccccc2)CN1)N1CCCC1
IC50 (Histone deacetylase 2 [1]): 26 µM
